This is an account of results in patent USRE47351E1 (Gilead Sciences, Inc., priority 1999, dated 2019).

In experiment [1] the test system is A2A AdoR. The experiment is described as follows: Coronary blood flow and reversal time in open-chest anesthetized pigs.
Procedure: Farm pigs weighing 22-27 kg were used in this study.
Anesthesia was anesthetized with ketamine (20 mg/kg, i.m.) and sodium pentobarbital (15-18 mg/kg i.v.). Anesthesia was maintained with additional sodium pentobarbital (1.5-2 mg/kg, i.v.) every 15-20 minutes. Ventilation was maintained via a tracheotomy using a mixture of room air and 100% O2. Tidal volume, respiratory rate and fraction of O2 in inspired air were adjusted to maintain normal arterial blood gas (ABG) and pH values. […] Lactate Ringers solution was administered via an ear or femoral vein, at 5-7 ml/kg/min after a initial bolus of 300-400 ml. A catheter was inserted into the femoral artery to monitor arterial blood pressure and to obtain ABG samples.
The heart was exposed through a median stemotomy, and suspended in a pericardial cradle. Left ventricular pressure (LVP) was measured with a 5F high fidelity pressure sensitive tip transducer (Millar Instrunents, Houston, Tex.) placed in the left ventricular cavity via the apex and secured with a purse string suture. A segment of the left anterior descending coronary artery (LAD), proximal to the origin of the first diagonal branch, was dissected free of, surrounding tissue. A transit time perivascular flow probe (Transonic Systems Inc., Ithaca, N.Y.) was placed around this segment to measure coronary blood flow (CBF). Proximal to the flow probe a 24 g modified angiocatheter was inserted for intracoronary infusions. […] A2A AdoR agonists were dissolved in DMSO to produce stock concentrations of 1-5 mM, which were diluted in 0.9% saline and infused at rates of 1-1.5 ml/min. The A2A AdoR agonists were administered intracoronary. To maintain blood pressure constant, phenylephrine was administered intravenously. The phenylephrine stock solution (30 mM) was prepared in distilled water.
Prior to initiating the experiment, a 30-minute stabilization period followed the completion of all instrumentation. […] The time to recovery of 50% (t 0.5) and 90% (t0.9) of baseline CBF were recorded. Ten to 15 minutes after CBF returned to pre-drug values a second infusion with a different agonist was started. […] The effect of a maximum of three different agonists was determined in each experiment.
The target in experiment [2] is A1 AdoR (Rattus norvegicus (Rat), UniProt P25099). The experiment is described as follows: A-V nodal conduction time (negative dromotropic effect) in rat isolated perfused hearts. As to conditions: Compound 16 0.1-30 μM, CVT510 100-400 nM. The procedure: In experiments in which A1 adenosine receptor-mediated negative dromotropic effect was measured, atrial and ventricular surface electrograms were recorded during constant atrial pacing.
Chain of A1 AdoR (P25099 whole entry, the tested form may be a part): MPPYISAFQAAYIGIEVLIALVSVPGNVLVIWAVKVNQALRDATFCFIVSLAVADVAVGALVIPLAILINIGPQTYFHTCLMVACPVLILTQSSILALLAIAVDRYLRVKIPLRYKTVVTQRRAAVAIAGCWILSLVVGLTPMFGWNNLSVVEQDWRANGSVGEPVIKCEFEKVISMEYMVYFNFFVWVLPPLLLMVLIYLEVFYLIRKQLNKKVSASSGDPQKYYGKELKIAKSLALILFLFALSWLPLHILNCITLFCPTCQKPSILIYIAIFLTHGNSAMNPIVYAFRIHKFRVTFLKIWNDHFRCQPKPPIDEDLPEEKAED
A1 adenosine receptor-mediated depression of A-V nodal conduction time (negative dromotropic effect) was measured. Atrial and ventricular surface electrograms in rats and His bundle electrogram in guinea pigs, were recorded during constant atrial pacing.
Hearts were instrumented for continuous recording of coronary perfusion pressure (A2A response) and atrioventricular (A-V) conduction time or S-H interval (A1 response).

For experiment [3], the target named is A2A receptor (Sus scrofa, UniProt K9IW67). The experiment can be described thus: A2A receptor affinity in pig striatum membrane prep (tritiated ZM 241385 displacement). The experiment is classed as binding. As to conditions: pig striatal membranes, displacement of tritiated ZM 241385 (2 nM), 23° C. 2 h; read-out: A2a Ki. How it is done:
Compounds of this invention were assayed to determine their affinity for the A2A receptor in a pig striatum membrane prep. […]. To the pig membranes was added 2 μL of serially diluted DMSO stock solution of the compounds of this invention at concentrations ranging from 10 nM to 100 microM or the control received 2 microL of DMSO alone, then the antagonist ZM 241385 in Tris buffer (50 mM, pH of 7.4) was added to achieve a final concentration of 2 nM. After incubation at 23° C. for 2 h, then the solutions were filtered using a membrane harvester using multiple washing of the membranes (3×). The filter disks were counted in scintillation cocktail to determine the amount of displacement of tritiated ZM displaced by the compounds of this invention. Greater than a 5 point curve was used to generate Ki's and the number of experiments is indicated in the column marked in Table 1 below.

Experiment [4] has as its target A2A adenosine receptor (Rattus norvegicus (Rat), UniProt P30543). The experiment is described as follows: Reversal time of coronary vasodilation in rat isolated perfused hearts. As to conditions: bolus injection.
Procedure: Adult Sprague Dawley rats of either sex weighing from 230 to 260 grams were used in this study. Animals were anesthetized by peritoneal injection of a cocktail containing ketamine and xylazine (ketamine 100 mg, xylazine 20 mg/ml). The chest was opened and the heart quickly removed. The heart was briefly rinsed in ice-cold Krebs-Henseleit solution (see below), and the aorta cannulated. […] The heart was electrically paced at a fixed cycle length of 340 ms (250 beats/min) using a bipolar electrode place on the left atrium. The electrical stimuli were generated by a Grass stimulator (Model S48, W. Warwick, R.I.) and delivered through a Stimuli Isolation Unit (Model SIU5, Astro-Med, Inc., N.Y.) as square-wave pulses of 3 msec in duration and amplitude of at least twice the threshold intensity.
Coronary perfusion pressure (CPP) was measured using a pressure transducer, connected to the aortic cannula via a T-connector positioned approximately 3 cm above the heart Coronary perfusion pressure was monitored throughout the experiment and recorded either on a chart recorder (Gould Recorder ^2200S) or a computerized recording system (PowerLab/4S, ADInstruments Pty Ltd, Australia). Only hearts with CPP ranging from 60 to 85 mmHg (in the absence of drugs) were used in the study.
Protocol A: Bolus injections. […] The times to 50% (t 0.5) and 90%/o (t 0.9) reversal of the decrease in CPP were measured. Each heart was exposed to a maximum of three vasodilators.
Protocol B: Continuous infusion. […] The times to 50% (t 0.5) and 90% (t 0.9) reversal of the decreases in CPP were measured from the time at which the infusion of the agonists was stopped. […] In addition, the duration of the injection was varied according to the volume of the boluses such as 10, 20 and 30 sec for 100, 200 and 300 μl boluses respectively. […] Boluses of various agonists were injected into the perfusion line of rat isolated perfused hearts (n=4 to 6 for each agonist) and the time to 90% (t0.9) reversal of the decrease in CPP measured.

Some results are limits rather than exact numbers.

Chain of A2A adenosine receptor (P30543 whole entry, the tested form may be a part): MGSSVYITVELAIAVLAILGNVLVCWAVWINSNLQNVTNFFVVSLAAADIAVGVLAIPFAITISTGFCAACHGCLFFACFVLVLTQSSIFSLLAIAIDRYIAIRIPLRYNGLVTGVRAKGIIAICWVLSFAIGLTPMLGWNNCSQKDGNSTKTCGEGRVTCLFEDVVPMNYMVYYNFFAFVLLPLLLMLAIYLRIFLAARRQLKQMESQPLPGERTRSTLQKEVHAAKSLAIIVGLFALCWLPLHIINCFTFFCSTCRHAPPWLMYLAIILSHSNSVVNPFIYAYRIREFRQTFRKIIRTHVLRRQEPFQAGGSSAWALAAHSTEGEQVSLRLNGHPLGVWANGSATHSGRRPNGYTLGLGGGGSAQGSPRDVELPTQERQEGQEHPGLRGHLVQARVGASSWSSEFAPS
Chain of A2A receptor (K9IW67 1-409): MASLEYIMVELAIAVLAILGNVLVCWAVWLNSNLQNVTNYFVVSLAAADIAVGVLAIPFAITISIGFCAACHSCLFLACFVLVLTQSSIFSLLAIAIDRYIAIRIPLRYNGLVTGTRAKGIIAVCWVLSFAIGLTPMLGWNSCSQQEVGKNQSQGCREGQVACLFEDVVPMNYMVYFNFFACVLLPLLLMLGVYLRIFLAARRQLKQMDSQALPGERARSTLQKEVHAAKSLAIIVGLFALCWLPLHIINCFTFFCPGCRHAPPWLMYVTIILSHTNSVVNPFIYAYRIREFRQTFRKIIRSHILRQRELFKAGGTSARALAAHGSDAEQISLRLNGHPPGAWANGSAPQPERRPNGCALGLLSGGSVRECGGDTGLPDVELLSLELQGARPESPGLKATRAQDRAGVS

For the compound `CCNC(=O)[C@H]1O[C@@H](n2cnc3c(N)nc(NCCc4ccc(CCC(=O)O)cc4)nc32)[C@H](O)[C@@H]1O` [CGS21680], in experiment [1] (2 μg/kg/min), the “t 0.5 (min), time to 50% reversal of the increase in coronary blood flow” value is given as 9.7 ± 0.8 min and the “t 0.9 (min), time to 90% reversal of the increase in coronary blood flow” value amounted to 21.4 ± 0.8 min.

Take `OC[C@H]1O[C@@H](n2cnc3c(N[C@@H]4CCOC4)ncnc32)[C@H](O)[C@@H]1O` [CVT510, 2-{6-[((3R)oxolan-3-yl)amino]purin-9-yl}(4S,3R,5R)-(hydroxymethyl)oxolane-3,4-diol, reference compound]: in experiment [2], the “Effect on A-V nodal conduction time” value is “significantly prolonged”.

As for `CCOC(=O)c1cnn(-c2nc(N)c3ncn([C@@H]4O[C@H](CO)[C@@H](O)[C@H]4O)c3n2)c1` [Compound 12, Ethyl 1-{9-[(4S,2R,3R,5R)-3,4-dihydroxy-5-(hydroxymethyl)oxolan-2-yl]-6-aminopurin-2-yl}pyrazole-4-carboxylate], the Ki (in general, a dissociation constant, usually derived from enzyme kinetics or from competition with a known ligand) in experiment [3] lay within 0.01 to 1 µM. Also, in experiment [4], the “t 0.5 (min), time to 50% reversal of the increase in coronary conductance” value was determined as 14.83 ± 2.1 min and the “t 0.9 (min), time to 90% reversal of the increase in coronary conductance” value worked out at 15.0 ± 0.8 min.

For the compound `COc1ccc(-c2cnn(-c3nc(N)c4ncn(C5O[C@H](CO)[C@@H](O)[C@H]5O)c4n3)c2)cc1` (stereo partly drawn) [Compound 14, (4S,2R,3R,5R)-2-{6-Amino-2-[4-(4-metboxyphenyl)pyrazolyl]purin-9-yl}-5-(hydroxymethyl)oxolane-3,4-diol], the Ki in experiment [3] is 1 to 10 µM.

`Cc1ccc(-c2cnn(-c3nc(N)c4ncn(C5O[C@H](CO)[C@@H](O)[C@H]5O)c4n3)c2)cc1` (some centres unmarked) [Compound 15]: the Ki in experiment [3] lay within 1 to 10 µM.

For `Nc1nc(-n2cc(C(=O)O)cn2)nc2c1ncn2[C@@H]1O[C@H](CO)[C@@H](O)[C@H]1O` [Compound 17, 1-{9-[(4S,2R,3R,5R)-3,4-dihydroxy-5-(hydroxymethyl)oxolan-2-yl]-6-aminopurin-2-yl}pyrazole-4-carboxylic acid], the Ki in experiment [3] was greater than 100 µM.

In the case of `CN(C)C(=O)c1cnn(-c2nc(N)c3ncn([C@@H]4O[C@H](CO)[C@@H](O)[C@H]4O)c3n2)c1` [Compound 18, (1-{9-[(4S,2R,3R,5R)-3,4-dihydroxy-5-(hydroxymethyl)oxolan-2-yl]-6-aminopurin-2-yl}pyrazol-4-yl)-N,N-dimethylcarboxamide], the Ki in experiment [3] was in the range of 0.01 to 1 µM.

For `CCNC(=O)c1cnn(-c2nc(N)c3ncn(C4O[C@H](CO)[C@@H](O)[C@H]4O)c3n2)c1` (stereo partly drawn) [Compound 19, (1-{9-[(4S,2R,3R,5R)-3,4-dihydroxy-5-(hydrozymethyl)oxolan-2-yl]-6-aminopurin-2-yl}pyrazol-4-yl)-N-ethylcarboxamide], in experiment [3], the Ki was in the range of 0.01 to 1 µM.

With `NC(=O)c1cnn(-c2nc(N)c3ncn([C@@H]4O[C@H](CO)[C@@H](O)[C@H]4O)c3n2)c1` [Compound 20, 1-{9-[(4S,2R,3R,5R)-3,4-dihydroxy-5-(hydroxymethyl)oxolan-2-yl]-6-aminopurin-2-yl}pyrazole-4-carboxamide], the Ki in experiment [3] was in the range of 0.01 to 1 µM.

In the case of `Nc1nc(-n2cc(C(=O)NC3CCCC3)cn2)nc2c1ncn2[C@@H]1O[C@H](CO)[C@@H](O)[C@H]1O` [Compound 21, (1-{9-[(4S,2R,3R,5R)-3,4-dihydroxy-5-(hydroxymethyl)oxolan-2-yl]-6-aminopurin-2-yl}pyrazol-4-yl)-N-(cyclopentyl)carboxamide], in experiment [3], the Ki is 0.01 to 1 µM.

Turning to `Nc1nc(-n2cc(C(=O)NCc3ccc(Cl)cc3)cn2)nc2c1ncn2[C@@H]1O[C@H](CO)[C@@H](O)[C@H]1O` [Compound 22, (1-{9-[(4S,2R,3R,5R)-3,4-dihydroxy-5-(hydroxymethyl)oxolan-2-yl]-6-aminopurin-2yl}pyrazol-4yl)-N-[(4-chlorophenyl)methyl]carboxamide], the Ki in experiment [3] lay in the range of 0.01 to 1 µM.

Consider `CCCCC#Cc1nc(N)c2ncn([C@@H]3O[C@H](C(=O)NCC)[C@@H](O)[C@H]3O)c2n1` [HENECA, N-ethyl-1′-deoxy-1′-(6-amino-2-hexynyl-9H-purin9-yl)-beta-D-ribofuranuronamide], for which, in experiment [4], the “t 0.5 (min), time to 50% reversal of the increase in coronary conductance” value stood at 28.6 ± 1.1 min and the “t 0.9 (min), time to 90% reversal of the increase in coronary conductance” value stood at 32.8 ± 3.1 min.

Take `Nc1nc(N/N=C/C2CCCCC2)nc2c1ncn2[C@@H]1O[C@H](CO)[C@@H](O)[C@H]1O` [WRC-0470, 2-cyclohexylmethylidenehydrazino-adenosine]: in experiment [1] (1 μg/kg/min), the “t 0.5 (min), time to 50% reversal of the increase in coronary blood flow” value turned out to be 9.5 ± 0.8 min and the “t 0.9 (min), time to 90% reversal of the increase in coronary blood flow” value was 22.5 ± 1.6 min.

On to `CCCCCCC#Cc1nc(N)c2ncn([C@@H]3O[C@H](CO)[C@@H](O)[C@H]3O)c2n1` [YT-146, 2-alkynyladenosine], for which, in experiment [1] (1 μg/kg/min), the “t 0.5 (min), time to 50% reversal of the increase in coronary blood flow” value was 17.8 ± 3.4 min and the “t 0.9 (min), time to 90% reversal of the increase in coronary blood flow” value is on record as 32.9 ± 5.6 min. For the same compound, the “CBF (“Fold Increase”)” value in experiment [1] (1 μg/kg/min intracoronary infusion) is on record as 3.44 ± 0.47 fold. Besides, in experiment [4], the “t 0.5 (min), time to 50% reversal of the increase in coronary conductance” value is listed as 17.7 ± 1.0 min and the “t 0.9 (min), time to 90% reversal of the increase in coronary conductance” value was 28.5 ± 4.0 min.
